Reference: PubChem BioAssay AID192 (DTP/NCI, 2004)
“And” between values parts separate entries of the source, which are not always exact repeats. Identical values can stand only once. Inconclusive results and toxic doses are left out. The calls were made as follows: active = survival T/C of 150% or more; inactive = T/C below 125% in these data.

Test system: BDF1 mice, B16 melanoma ip, median survival T/C
Experiment: NCI In Vivo Anticancer Drug Screen. Data for tumor model B16 Melanoma (intraperitoneal) in B6D2F1 (BDF1) mice
Details: endpoint: median survival time, higher = longer survival
How it was run: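 Values are ratios of treated (T) to vehicle-control (C) measurements of survival or tumor size in tumor-bearing mice.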

[1] = dose: 12.5 mg/kg/injection, schedule: Q01DX009 (ip), vehicle: gum acacia
[2] = dose: 50.0 mg/kg/injection, schedule: Q01DX009 (ip), vehicle: gum acacia
[3] = dose: 12.5 mg/kg/injection, schedule: Q01DX009 (ip), vehicle: saline with Tween-80
[4] = dose: 25.0 mg/kg/injection, schedule: Q01DX009 (ip), vehicle: saline with Tween-80
[5] = dose: 50.0 mg/kg/injection, schedule: Q01DX009 (ip), vehicle: saline with Tween-80
[6] = dose: 100.0 mg/kg/injection, schedule: Q01DX009 (ip), vehicle: saline with Tween-80
[7] = dose: 100.0 mg/kg/injection, schedule: Q01DX009 (ip), vehicle: saline
[8] = dose: 100.0 mg/kg/injection, schedule: Q04DX003 (ip), vehicle: Klucel (hydroxypropylcellulose) (HPC)
[9] = dose: 200.0 mg/kg/injection, schedule: Q04DX003 (ip), vehicle: Klucel (hydroxypropylcellulose) (HPC)
[10] = dose: 100.0 mg/kg/injection, schedule: Q01DX009 (ip), vehicle: Klucel (hydroxypropylcellulose) (HPC)
[11] = dose: 200.0 mg/kg/injection, schedule: Q01DX009 (ip), vehicle: Klucel (hydroxypropylcellulose) (HPC)
[12] = dose: 12.5 mg/kg/injection, schedule: Q01DX009 (ip), vehicle: Klucel (hydroxypropylcellulose) (HPC)
[13] = dose: 25.0 mg/kg/injection, schedule: Q01DX009 (ip), vehicle: Klucel (hydroxypropylcellulose) (HPC)
[14] = dose: 50.0 mg/kg/injection, schedule: Q01DX009 (ip), vehicle: Klucel (hydroxypropylcellulose) (HPC)
[15] = dose: 200.0 mg/kg/injection, schedule: Q01DX009 (ip), vehicle: saline with Tween-80
[16] = dose: 400.0 mg/kg/injection, schedule: Q01DX009 (ip), vehicle: Klucel (hydroxypropylcellulose) (HPC)
[17] = dose: 400.0 mg/kg/injection, schedule: Q01DX009 (ip), vehicle: saline with Tween-80

Measured: T/C

CC(=O)c1c(O)c(C)c(O)c2c1OC1=CC(=O)C(C(C)=O)C(=O)C12C (stereo not drawn)
inactive: dose: 5.0 mg/kg/injection, schedule: Q01DX009 (ip), vehicle: gum acacia 107 % of control | dose: 6.25 mg/kg/injection, schedule: Q01DX009 (ip), vehicle: gum acacia 92 % of control | [1] 108 % of control | dose: 20.0 mg/kg/injection, schedule: Q01DX009 (ip), vehicle: gum acacia 100 % of control | dose: 40.0 mg/kg/injection, schedule: Q01DX009 (ip), vehicle: gum acacia 102 % of control | [2] 108 % of control | dose: 80.0 mg/kg/injection, schedule: Q01DX009 (ip), vehicle: gum acacia 105 % of control | dose: 100.0 mg/kg/injection, schedule: Q01DX009 (ip), vehicle: gum acacia 97 % of control

O=C(/C(=C\c1ccccc1)CN1CCOCC1)c1ccc(Br)cc1
inactive: [3] 91 % of control | [4] 94 % of control | [5] 94 % of control | [6] 89 % of control

O=C(CCCN1CCN(c2ccccc2)CC1)c1ccc(F)cc1
inactive: dose: 12.5 mg/kg/injection, schedule: Q01DX009 (ip), vehicle: saline 112 % of control | dose: 25.0 mg/kg/injection, schedule: Q01DX009 (ip), vehicle: saline 115 % of control | dose: 50.0 mg/kg/injection, schedule: Q01DX009 (ip), vehicle: saline 107 % of control | [7] 102 % of control | dose: 200.0 mg/kg/injection, schedule: Q01DX009 (ip), vehicle: saline 100 % of control

CN(C)N=Nc1cccc(C(N)=O)c1
inactive: dose: 5.0 mg/kg/injection, schedule: Q01DX009 (ip), vehicle: Klucel (hydroxypropylcellulose) (HPC) 103 % of control and 121 % of control | dose: 10.0 mg/kg/injection, schedule: Q01DX009 (ip), vehicle: Klucel (hydroxypropylcellulose) (HPC) 106 % of control and 113 % of control | dose: 20.0 mg/kg/injection, schedule: Q01DX009 (ip), vehicle: Klucel (hydroxypropylcellulose) (HPC) 111 % of control and 123 % of control | dose: 80.0 mg/kg/injection, schedule: Q01DX009 (ip), vehicle: Klucel (hydroxypropylcellulose) (HPC) 101 % of control and 118 % of control | [7] 46 % of control | dose: 160.0 mg/kg/injection, schedule: Q01DX009 (ip), vehicle: Klucel (hydroxypropylcellulose) (HPC) 113 % of control

CCOC(=O)Nc1cc(N)cc(NC(=O)OCC)c1
inactive: dose: 50.0 mg/kg/injection, schedule: Q04DX003 (ip), vehicle: Klucel (hydroxypropylcellulose) (HPC) 94 % of control | [8] 100 % of control | [9] 94 % of control

O=C1OC(=O)C2C1C1C3C=CC3C1C21C=C1 (stereo not drawn)
inactive: [10] 87 % of control | [11] 87 % of control

CS(=O)(=O)OCCCNCCCOS(C)(=O)=O
active: dose: 10.0 mg/kg/injection, schedule: Q01DX009 (ip), vehicle: saline 159 % of control | dose: 20.0 mg/kg/injection, schedule: Q01DX009 (ip), vehicle: saline 161 % of control and 175 % of control and 202 % of control | dose: 30.0 mg/kg/injection, schedule: Q01DX009 (ip), vehicle: saline 189 % of control | dose: 40.0 mg/kg/injection, schedule: Q01DX009 (ip), vehicle: saline 201 % of control and 215 % of control and 271 % of control | dose: 60.0 mg/kg/injection, schedule: Q01DX009 (ip), vehicle: saline 228 % of control
inactive: dose: 1.25 mg/kg/injection, schedule: Q01DX009 (ip), vehicle: saline 103 % of control | dose: 2.5 mg/kg/injection, schedule: Q01DX009 (ip), vehicle: saline 110 % of control | dose: 5.0 mg/kg/injection, schedule: Q01DX009 (ip), vehicle: saline 123 % of control

Cc1ccc2c(c1)CC(C)([CH2][Hg][Cl])O2 (stereo not drawn)
inactive: dose: 0.75 mg/kg/injection, schedule: Q01DX009 (ip), vehicle: Klucel (hydroxypropylcellulose) (HPC) 100 % of control | dose: 0.75 mg/kg/injection, schedule: Q04DX003 (ip), vehicle: Klucel (hydroxypropylcellulose) (HPC) 95 % of control | dose: 1.5 mg/kg/injection, schedule: Q01DX009 (ip), vehicle: Klucel (hydroxypropylcellulose) (HPC) 93 % of control | dose: 1.5 mg/kg/injection, schedule: Q04DX003 (ip), vehicle: Klucel (hydroxypropylcellulose) (HPC) 100 % of control | dose: 3.0 mg/kg/injection, schedule: Q01DX009 (ip), vehicle: Klucel (hydroxypropylcellulose) (HPC) 92 % of control and 95 % of control | dose: 3.0 mg/kg/injection, schedule: Q04DX003 (ip), vehicle: Klucel (hydroxypropylcellulose) (HPC) 93 % of control and 95 % of control

O=C(Nc1ccccc1)Nc1nccs1
inactive: [12] 91 % of control | [13] 93 % of control and 113 % of control | [14] 98 % of control and 102 % of control | [10] 93 % of control and 99 % of control | [11] 94 % of control and 100 % of control

COc1ccc(C(=O)c2cc(OC)c(OC)c(OC)c2)cc1OC
inactive: [10] 110 % of control | [6] 111 % of control | [11] 105 % of control | [15] 104 % of control | [16] 115 % of control | [17] 102 % of control

CC(=O)C12OC1(C)CC1C3CC=C4CC(O)CCC4(C)C3CCC12C (stereo not drawn)
inactive: [10] 107 % of control | [11] 95 % of control | [16] 105 % of control

CSc1ncnc2c1ncn2-n1cccc1
inactive: [10] 88 % of control | [8] 100 % of control | [11] 88 % of control | [9] 100 % of control | [16] 113 % of control | dose: 400.0 mg/kg/injection, schedule: Q04DX003 (ip), vehicle: Klucel (hydroxypropylcellulose) (HPC) 100 % of control

O=C(CC(=O)C(F)(F)F)c1csc2ccccc12
inactive: [3] 102 % of control | [4] 97 % of control | [5] 114 % of control

O=C1NC(C2CCC3CN32)C(=O)NC1C1CCC2CN21 (stereo not drawn)
inactive: dose: 0.05 mg/kg/injection, schedule: Q01DX009 (ip), vehicle: saline 102 % of control | dose: 0.1 mg/kg/injection, schedule: Q01DX009 (ip), vehicle: saline 107 % of control | dose: 0.2 mg/kg/injection, schedule: Q01DX009 (ip), vehicle: saline 108 % of control | dose: 0.4 mg/kg/injection, schedule: Q01DX009 (ip), vehicle: saline 115 % of control

OC(CCN1CCCCC1)(c1ccccc1)C1CC2C=CC1C2 (stereo not drawn)
inactive: dose: 0.19 mg/kg/injection, schedule: Q01DX009 (ip), vehicle: Klucel (hydroxypropylcellulose) (HPC) 96 % of control | dose: 0.39 mg/kg/injection, schedule: Q01DX009 (ip), vehicle: Klucel (hydroxypropylcellulose) (HPC) 100 % of control | dose: 0.78 mg/kg/injection, schedule: Q01DX009 (ip), vehicle: Klucel (hydroxypropylcellulose) (HPC) 103 % of control | dose: 1.56 mg/kg/injection, schedule: Q01DX009 (ip), vehicle: Klucel (hydroxypropylcellulose) (HPC) 100 % of control | dose: 3.12 mg/kg/injection, schedule: Q01DX009 (ip), vehicle: Klucel (hydroxypropylcellulose) (HPC) 115 % of control | dose: 6.25 mg/kg/injection, schedule: Q01DX009 (ip), vehicle: Klucel (hydroxypropylcellulose) (HPC) 94 % of control | [12] 92 % of control and 96 % of control | [10] 89 % of control

O=C(c1ccc(O)cc1O)c1cccc2ccccc12
inactive: [10] 98 % of control | [11] 98 % of control | [16] 100 % of control

Ic1ccccc1C[N+]12CN3CN(CN(C3)C1)C2
inactive: [5] 97 % of control | [6] 94 % of control | [15] 105 % of control

Cc1c2ccncc2cc2c1[nH]c1ccccc12
inactive: [4] 119 % of control | [5] 121 % of control | [6] 122 % of control

CN(C)C=Nc1ccccc1
inactive: [10] 100 % of control | [11] 112 % of control | [16] 109 % of control

C[NH-].C[NH-].[Cl][Pt+2][Cl]
active: dose: 8.0 mg/kg/injection, schedule: Q01DX009 (ip), vehicle: saline with Tween-80 154 % of control
inactive: dose: 0.39 mg/kg/injection, schedule: Q01DX009 (ip), vehicle: saline 102 % of control | dose: 0.78 mg/kg/injection, schedule: Q01DX009 (ip), vehicle: saline 104 % of control | dose: 1.56 mg/kg/injection, schedule: Q01DX009 (ip), vehicle: saline 112 % of control | dose: 3.13 mg/kg/injection, schedule: Q01DX009 (ip), vehicle: saline 121 % of control

CC1(C)C=C(C(Br)c2ccc(Cl)cc2)C(=O)c2ccccc21 (stereo not drawn)
inactive: [5] 103 % of control | [6] 106 % of control | [15] 99 % of control | [17] 97 % of control

CNc1ccc(/C=C2\C=Cc3ccccc32)cc1
inactive: [1] 104 % of control | [13] 109 % of control | dose: 25.0 mg/kg/injection, schedule: Q01DX009 (ip), vehicle: gum acacia 91 % of control | [14] 112 % of control | [2] 102 % of control
